Reference: patent US20260226102A1, “PEPTIDES FOR INCRETIN SYNTHESIS” (priority 2022, published 2026)
Where a name gives a salt, the structure may show the parent alone. Read-outs that look alike come from different tables or passages of the source. Square brackets hold non-standard residues; d marks the D form. Peptide text beside a SMILES is read from it. * marks the point of attachment. Boc = CC(C)(C)OC(=O)*; Aib = CC(C)(N)C(=O)O; OcHex = C1CCC(O*)CC1; OBn = c1ccc(CO*)cc1; OtBu = CC(C)(C)O*; tBu = CC(C)(C)*; OAll = C=CCO*

What was measured:
[1] = Dynamic vapor sorption (DVS) analysis of hygroscopicity; format: physicochemical
Excerpt: Crystallization of Y-Aib-E-G helps to reject impurities from the crude material. […] Crystallization of the crude Y-Aib-E-G spiked with 1% dimer (impurity) yielded a crystalline Y-Aib-E-G with almost complete rejection of the dimer. Crystallization also improves physical properties, for example, the hygroscopicity.

[2] = Physical stability of crystalline solid form on isolation/drying (XRPD); format: physicochemical; conditions: for physical stability of the crystalline form: during isolation or upon air-drying/drying
[3] = standing 24 hours or more
Protocol: Peptide samples were screened for crystal stability in several organic solvents. […] The following organic solvents were used for the study: Acetone, ACN, MeOH, EtOH, IPA, BuOH, EtOAc, MTBE, THF, MEK, toluene, and water.
30 mg samples of each peptide tetramer were dispensed into sample vials using an automated dispenser (one vial of each peptide for testing with each solvent). […] Samples were then allowed to stand for 24 hours or more.

wt % gain in sorption from 0% to 95% RH [1]	physical stability of the crystalline form after vacuum drying ([2]; vacuum drying at 32-33° C. for 1 day)	Crystal Formed ([3]; solvent ACN)	Crystal Formed ([3]; solvent Acetone)	Crystal Formed ([3]; solvent BuOH)	Crystal Formed ([3]; solvent EtOAc)	Crystal Formed ([3]; solvent EtOH)	Crystal Formed ([3]; solvent H2O)	Crystal Formed ([3]; solvent IPA)	Crystal Formed ([3]; solvent MEK)	Crystal Formed ([3]; solvent MTBE)	Crystal Formed ([3]; solvent MeOH)	Crystal Formed ([3]; solvent THF)	Crystal Formed ([3]; solvent toluene)	SMILES	physical stability of the crystalline form [2]
1.4 wt %														CC(C)(C)OC(=O)CC[C@H](NC(=O)C(C)(C)NC(=O)[C@H](Cc1ccc(OC(C)(C)C)cc1)NC(=O)OC(C)(C)C)C(=O)NCC(=O)O [Y-Aib-E-G Form B, Boc-l-Tyr (tBu)-Aib-Glu(OtBu)-Gly-OH] (Boc-Y(tBu)[Aib]E(OtBu)G-OH)	
	remained as Form B													CC(C)(C)OC[C@H](NC(=O)[C@H](COC(C)(C)C)NC(=O)[C@@H]1CCCN1C(=O)CN)C(=O)NCC(N)=O [G-P-S-S-G-NH2 Form B, Gly-Pro-Ser(tBu)-Ser(tBu)-Gly-NH2] (H-GPS(tBu)S(tBu)G-NH2)	
4.1 wt %														CC(C)(C)OC(=O)CC[C@H](NC(=O)C(C)(C)NC(=O)[C@H](Cc1ccc(OC(C)(C)C)cc1)NC(=O)OC(C)(C)C)C(=O)NCC(=O)O [amorphous Y-Aib-E-G, Boc-l-Tyr (tBu)-Aib-Glu(OtBu)-Gly-OH] (Boc-Y(tBu)[Aib]E(OtBu)G-OH)	
		No	No	No	No	No	No	No	No	Yes	No	No	No	COC(=O)CCC(NC(=O)C(C)(C)NC(=O)C(Cc1ccc(OC(C)(C)C)cc1)NC(=O)OC(C)(C)C)C(=O)NCC(=O)O (stereo not drawn) [Boc—Y(tBu)-Aib-E(Me)-G-COOH, Boc-Y(tBu)-Aib-E(Me)-G-COOH] (Boc-Y(tBu)[Aib]E(OMe)G-OH; configuration not given here)	
		Yes	Yes	No	Yes	No	No	No	Yes	Yes	No	Yes	Yes	CC(C)(C)OC(=O)N[C@@H](Cc1ccc(OC(C)(C)C)cc1)C(=O)NC(C)(C)C(=O)N[C@@H](CCC(=O)OCc1ccccc1)C(=O)NCC(=O)O [Boc—Y(tBu)-Aib-E(Bzl)-G-COOH, Boc-Y(tBu)-Aib-E(Bzl)-G-COOH] (Boc-Y(tBu)[Aib]E(OBn)G-OH)	

The next lines start with the compound.

SMILES	wt % gain in sorption from 0% to 95% RH [1]	physical stability of the crystalline form after vacuum drying ([2]; vacuum drying at 32-33° C. for 1 day)	Crystal Formed ([3]; solvent ACN)	Crystal Formed ([3]; solvent Acetone)	Crystal Formed ([3]; solvent BuOH)	Crystal Formed ([3]; solvent EtOAc)	Crystal Formed ([3]; solvent EtOH)	Crystal Formed ([3]; solvent H2O)	Crystal Formed ([3]; solvent IPA)	Crystal Formed ([3]; solvent MEK)	Crystal Formed ([3]; solvent MTBE)	Crystal Formed ([3]; solvent MeOH)	Crystal Formed ([3]; solvent THF)	Crystal Formed ([3]; solvent toluene)	physical stability of the crystalline form [2]
CC(C)(C)OC[C@H](NC(=O)[C@H](COC(C)(C)C)NC(=O)[C@@H]1CCCN1C(=O)CN)C(=O)NCC(N)=O [G-P-S-S-G-NH2 Form A, Gly-Pro-Ser(tBu)-Ser(tBu)-Gly-NH2] (H-GPS(tBu)S(tBu)G-NH2)															physically is not stable and converts to Form B easily
CC(C)(C)OC(=O)NC(Cc1cn(-c2ccc([N+](=O)[O-])cc2[N+](=O)[O-])cn1)C(=O)NC(C)(C)C(=O)NC(CCC(=O)NC(c1ccccc1)(c1ccccc1)c1ccccc1)C(=O)NCC(=O)O (stereo not drawn) [H(DNP)-Aib-Q-G Form A, (Boc)-His(dnp)-Aib-Gln(trt)-Gly]															converts to H(DNP)-Aib-Q-G Form C easily
C[C@H](N)C(=O)N1CCC[C@H]1C(=O)N1CCC[C@H]1C(=O)N1CCC[C@H]1C(=O)N[C@@H](COC(C)(C)C)C(N)=O [H-A-P-P-P-S-NH2 HCl Form A, H-Ala-Pro-Pro-Pro-Ser(tBu)-NH2] (H-APPPS(tBu)-NH2)															loses crystallinity upon isolation/drying
CC(C)(C)OC(=O)NC(Cc1ccc(OC(C)(C)C)cc1)C(=O)NC(C)(C)C(=O)NC(CCC(=O)OC1CCCCC1)C(=O)NCC(=O)O (stereo not drawn) [Boc—Y(tBu)-Aib-E(cHx)-G-COOH, Boc-Y(tBu)-Aib-E(cHx)-G-COOH] (Boc-Y(tBu)[Aib]E(OcHex)G-OH; configuration not given here)			No	No	No	No	No	No	No	No	No	No	No	No	
C=CCOC(=O)CCC(NC(=O)C(C)(C)NC(=O)C(Cc1ccc(OC(C)(C)C)cc1)NC(=O)OC(C)(C)C)C(=O)NCC(=O)O (stereo not drawn) [Boc—Y(tBu)-Aib-E(All)-G-COOH, Boc-Y(tBu)-Aib-E(All)-G-COOH] (Boc-Y(tBu)[Aib]E(OAll)G-OH; configuration not given here)			No	No	No	Yes	No	No	No	Yes	Yes	No	No	No	
